Measured values published in paper PMC12040169 (PLOS Biology, 2025).

test: in vitro; settings: human, hela cells, % viability

| Compound | viability at 28.5 h, 10 µM [%] |
| --- | --- |
| CCC(Oc1ccccc1F)C(=O)Nc1cc(C)on1 (stereo not shown) [CBK305558] | 98.5 |
| CCNC(=O)N1CC2(CCN(CCOCC)CC2)c2ccccc21 [CBK136972] | 90.5 |
| Cc1ccc(C2=CCN(CC(=O)Nc3ncc(C)s3)CC2)o1 [CBK283383] | 90 |
| Cc1ccc(F)c(OC2(C(=O)O)CCN(Cc3cnc(C)nc3)CC2)c1 [CBK306860] | 100 |
| COc1ccc(Br)cc1S(=O)(=O)NCc1cccnc1 [CBK264023] | 90.7 |
| COc1ncc(-c2nccnc2OC2CCCCC2)c(OC)n1 [CBK106745] | 90.8 |
| Cc1cccc(OC(C)C(=O)Nc2ccc(S(=O)(=O)N3CCOCC3)cc2)c1 (stereo not shown) [CBK269609] | 106 |
| O=C(c1ccccc1)N1C[C@@H](c2ccsc2)[C@@H]2CN(Cc3ccccc3F)CC[C@@H]21 [CBK285612] | 116 |
| Cc1cc(Cc2cccc(Cl)c2)cc(C2CCCN(C(=O)CN3CCCC3=O)C2)n1 (stereo not shown) [CBK286103] | 94 |
| CCOC(=O)c1c(-c2cccs2)csc1NC(=O)CN1CCCCCC1 [CBK265294G] | 106 |
| O=C(Cc1csc(-c2ccc(Cl)cc2)n1)NCC1CCCN1 (stereo not shown) [CBK160982] | 106 |
| CNC(=O)CN(C)C(=O)c1coc(COc2ccc3sc(C)nc3c2)n1 [CBK307571] | 83.1 |
| CC(=O)N[C@H]1CC[C@]2(C)CCC([C@H](C)C(=O)N3CCCCC3)[C@H](O)[C@H]2[C@@H]1C (stereo partly shown) [CBK289439] | 89.4 |
| Cc1ccc(SCCCNCCN(C)C)cc1 [CBK267807C] | 92.2 |
| O=[N+]([O-])c1ccc(S(=O)(=O)CC(CN2CCCCC2)N2CCCCC2)cc1 (stereo not shown) [CBK267070] | 100 |
| Cc1c(C(=O)O)sc(S(=O)(=O)N2CCN(C(=O)Cc3ccccc3Cl)CC2)c1C(=O)O [CBK297137] | 107 |
| CCOc1ccc(CN2CCN(C(=O)c3ccc(-c4ccccc4)cc3)CC2)cc1 [CBK263399] | 99.9 |

| Compound | viability at 28.5 h, 10 µM [%] |
| --- | --- |
| Cc1ccc(S(=O)(=O)OC[C@H]2O[C@@H](n3cc(C)c(=O)[nH]c3=O)C[C@H]2O)cc1 [CBK201165] | 88.1 |
| Fc1ccccc1Oc1nnnn1-c1ccccc1 [CBK002526] | 98.2 |
| CCOC(=O)c1c(NS(=O)(=O)c2cc(Cl)sc2Cl)sc2c1CCCC2 [CBK050397] | 96.1 |
| O=C(O)c1cc(-c2ccc(/C=C3\NC(=O)N(Cc4ccccc4)C3=O)o2)ccc1Cl [CBK078117] | 98.9 |
| CCn1nc(C)c(C(C)NC(=O)C(C)n2cc(Cl)cn2)c1C (stereo not shown) [CBK281550] | 89.7 |
| O=C1CCC(=O)N1CCOc1nccnc1N1CCN(CCCn2c(=O)[nH]c3ccccc32)CC1 [CBK084300] | 110 |
| CO[C@@H](C(=O)Nc1cnc(-c2cccc(C)c2)c(-c2ccco2)n1)c1ccccc1 [CBK037613] | 105 |
| COc1cc(CNC2CCCCC2)ccc1OCC(N)=O [CBK263866] | 90.9 |
| CC(C)(C)c1cn(C[C@H]2CC3CCN2C[C@@H]3C(=O)NC2CCCCC2)nn1 (stereo partly shown) [CBK289085] | 83.9 |
| COc1cc([N+](=O)[O-])c2[nH]c(C(=O)O)c(CCNC(C)=O)c2c1 [CBK260895] | 105 |
| CSc1ccc(CN(CCO)CCO)cc1 [CBK261931] | 98.6 |
| CC(C)NC(=O)[C@H]1CN2CCC1C[C@@H]2Cn1cc(-c2cccc(O)c2)nn1 (stereo partly shown) [CBK288731] | 91.7 |
| CCOCCNC(=O)c1coc(COc2ccc3sc(C)nc3c2)n1 [CBK306805] | 109 |
| Cc1ccc(C)c(C2CCCN2C(=O)Cn2cc(C(=O)NCc3ccccc3)ccc2=O)c1 (stereo not shown) [CBK286052] | 112 |
| OCCCNc1cc(Nc2ccccc2)n2nccc2n1 [CBK037078] | 102 |
| O=S(=O)(NN1CCOCC1)c1cc(Cl)cc(Cl)c1O [CBK269279] | 89.8 |

same assay, conditions: human, hela cells, % viability, bulk resorufin, single well

| Compound | viability at 28.5 h, 10 µM [%] |
| --- | --- |
| Cc1cccc(N2C(=O)NC(=O)/C(=C/NC3CCN(Cc4ccccc4)CC3)C2=O)c1 [CBK261827] | 92.2 |
